Tests used:
[1] = tested on: HCC1954 cells (with PI3Kα H1047R mutation); test: In vitro inhibition of HCC1954 cell proliferation (CellTiter-Lumi); assay type: cell-based; conditions: Homo sapiens, HCC1954, 144 h, HCC1954 cells, 144 h, CellTiter-Lumi; class symbols; read-out: Inhibitory activity against HCC1954 cells (IC50), class symbols
Experimental: Assay for In Vitro Inhibition of HCC1954 Cell Proliferation by Compounds of the Present Disclosure
The growth of the cells was evaluated, and the IC50 for the inhibition of cell growth by the compounds was calculated.

[2] = tested on: MCF-7 cells (with PI3Kα E545K mutation); test: In vitro inhibition of MCF-7 cell proliferation (CellTiter-Lumi); assay type: cell-based; conditions: Homo sapiens, MCF7, 144 h, class symbols, read-out: Inhibitory activity against MCF-7 cells (IC50), class symbols
How it was run: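 MCF-7 (PI3Kα E545K) seeded at 2000 cells/well; serially diluted compounds added next day and exposed for 144 h. Cellular ATP read by CellTiter-Lumi luminescence; IC50 for growth inhibition calculated.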

| IC50 [1] | IC50 [2] | Structure (SMILES) |
| --- | --- | --- |
| < 50 nM | < 50 nM | CC(C)(C=C(C#N)C(=O)Nc1ccc(N2CC(N3CCN(c4ccc5c(c4)-c4nc(N6C(=O)OC[C@H]6C(F)F)cn4CCO5)CC3)C2)c(Cl)c1)NC1COC1 [Compound 353] |
| < 50 nM | < 50 nM | CN(C)C/C=C/C(=O)Nc1ccc(N2CC(N3CCN(c4ccc5c(c4)-c4nc(N6C(=O)OC[C@H]6C(F)F)cn4CCO5)CC3)C2)c(Cl)c1 [Compound 356] |
| < 50 nM | < 50 nM | CNC(C)(C)C=C(C#N)C(=O)Nc1ccc(N2CC(N3CCN(c4ccc5c(c4)-c4nc(N6C(=O)OC[C@H]6C(F)F)cn4CCO5)CC3)C2)cc1Cl [Compound 359] |
| < 50 nM | < 50 nM | CC(C)(N)C=C(C#N)C(=O)Nc1ccc(N2CC(N3CCN(c4ccc5c(c4)-c4nc(N6C(=O)OC[C@H]6C(F)F)cn4CCO5)CC3)C2)cc1Cl [Compound 360] |
| < 50 nM | < 50 nM | CC(C)(C=C(C#N)C(=O)Nc1ccc(N2CC(N3CCN(c4ccc5c(c4)-c4nc(N6C(=O)OC[C@H]6C(F)F)cn4CCO5)CC3)C2)cc1Cl)NC1COC1 [Compound 362] |
| < 50 nM | < 50 nM | Cc1nc(-c2cn3c(n2)-c2cc(N4CCN(C5CN(c6ccc(NC(=O)C(C#N)=CC(C)(C)C)cc6Cl)C5)CC4)ccc2OCC3)n(C(C)C)n1 [Compound 369] |
| < 50 nM | < 50 nM | Cc1nc(-c2cn3c(n2)-c2cc(N4CCN(C5CN(c6ccc(NC(=O)C(C#N)=CC(C)(C)NC(=O)OC(C)(C)C)cc6F)C5)CC4)ccc2OCC3)n(C(C)C)n1 [Compound 374] |
| < 50 nM | < 50 nM | CC(=O)NC(C)(C)C=C(C#N)C(=O)Nc1ccc(N2CC(N3CCN(c4ccc5c(c4)-c4nc(-c6nc(C)nn6C(C)C)cn4CCO5)CC3)C2)cc1 [Compound 375] |
| < 50 nM | < 50 nM | C=CC(=O)Nc1ccc(N2CC(N3CCN(c4ccc5c(c4)-c4nc(-c6nc(C)nn6C(C)C)cn4CCO5)CC3)C2)cc1Cl [Compound 377] |
| < 50 nM | < 50 nM | C=CC(=O)Nc1ccc(N2CC(N3CCN(c4ccc5c(c4)-c4nc(-c6nc(C)nn6C(C)C)cn4CCO5)CC3)C2)nc1 [Compound 379] |
| < 50 nM | < 50 nM | CC(C)(C=C(C#N)C(=O)Nc1ccc(N2CC(N3CCN(c4ccc5c(c4)-c4nc(N6C(=O)OC[C@H]6C(F)F)cn4CCO5)CC3)C2)cc1)NC1(C)COC1 [Compound 380] |
| < 50 nM | < 50 nM | CC(C)(C=C(C#N)C(=O)Nc1ccc(N2CC(N3CCN(c4ccc5c(c4)-c4nc(N6C(=O)OC[C@H]6C(F)F)cn4CCO5)CC3)C2)cc1)NCC1COC1 [Compound 381] |
| < 50 nM | < 50 nM | CC(C)(C=C(C#N)C(=O)Nc1ccc(N2CC(N3CCN(c4ccc5c(c4)-c4nc(N6C(=O)OC[C@H]6C(F)F)cn4CCO5)CC3)C2)nc1)NC1(C)COC1 [Compound 386] |
| < 50 nM | < 50 nM | CCC(C=C(C#N)C(=O)Nc1ccc(N2CC(N3CCN(c4ccc5c(c4)-c4nc(N6C(=O)OC[C@H]6C(F)F)cn4CCO5)CC3)C2)cc1)(CC)NC1COC1 [Compound 387] |
| < 50 nM | < 50 nM | CCC(C=C(C#N)C(=O)Nc1ccc(N2CC(N3CCN(c4ccc5c(c4)-c4nc(N6C(=O)OC[C@H]6C(F)F)cn4CCO5)CC3)C2)cc1)(CC)CC [Compound 389] |
| < 50 nM | < 50 nM | CC1(C=C(C#N)C(=O)Nc2ccc(N3CC(N4CCN(c5ccc6c(c5)-c5nc(N7C(=O)OC[C@H]7C(F)F)cn5CCO6)CC4)C3)cc2)CCC1 [Compound 390] |
| < 50 nM | < 50 nM | N#CC(=CC1CCCC1)C(=O)Nc1ccc(N2CC(N3CCN(c4ccc5c(c4)-c4nc(N6C(=O)OC[C@H]6C(F)F)cn4CCO5)CC3)C2)cc1 [Compound 393] |

Continued, compound first:

| Structure (SMILES) | IC50 [1] | IC50 [2] |
| --- | --- | --- |
| CC(=O)NC(C)(C)C=C(C#N)C(=O)Nc1ccc(N2CC(N3CCN(c4ccc5c(c4)-c4nc(N6C(=O)OC[C@H]6C(F)F)cn4CCO5)CC3)C2)nc1 [Compound 348] | < 50 nM | < 50 nM |
| CNC(C)(C)C=C(C#N)C(=O)Nc1ccc(N2CC(N3CCN(c4ccc5c(c4)-c4nc(N6C(=O)OC[C@H]6C(F)F)cn4CCO5)CC3)C2)c(Cl)c1 [Compound 350] | < 50 nM | < 50 nM |
| CC(C)(N)C=C(C#N)C(=O)Nc1ccc(N2CC(N3CCN(c4ccc5c(c4)-c4nc(N6C(=O)OC[C@H]6C(F)F)cn4CCO5)CC3)C2)c(Cl)c1 [Compound 351] | < 50 nM | < 50 nM |
| CN(C1COC1)C(C)(C)C=C(C#N)C(=O)Nc1ccc(N2CC(N3CCN(c4ccc5c(c4)-c4nc(N6C(=O)OC[C@H]6C(F)F)cn4CCO5)CC3)C2)c(Cl)c1 [Compound 352] | < 50 nM | < 50 nM |
| CC(C)(C=C(C#N)C(=O)Nc1ccc(N2CC(N3CCN(c4ccc5c(c4)-c4nc(N6C(=O)OC[C@H]6C(F)F)cn4CCO5)CC3)C2)c(Cl)c1)N1CCC1 [Compound 354] | < 50 nM | < 50 nM |
| CC(C)(C)C=C(C#N)C(=O)Nc1ccc(N2CC(N3CCN(c4ccc5c(c4)-c4nc(N6C(=O)OC[C@H]6C(F)F)cn4CCO5)CC3)C2)c(Cl)c1 [Compound 355] | < 50 nM | < 50 nM |
| CC(=O)NC(C)(C)C=C(C#N)C(=O)Nc1ccc(N2CC(N3CCN(c4ccc5c(c4)-c4nc(N6C(=O)OC[C@H]6C(F)F)cn4CCO5)CC3)C2)c(Cl)c1 [Compound 357] | < 50 nM | < 50 nM |
| CC(C)(C=C(C#N)C(=O)Nc1ccc(N2CC(N3CCN(c4ccc5c(c4)-c4nc(N6C(=O)OC[C@H]6C(F)F)cn4CCO5)CC3)C2)cc1Cl)NC(=O)OC(C)(C)C [Compound 358] | < 50 nM | < 50 nM |
| CN(C1COC1)C(C)(C)C=C(C#N)C(=O)Nc1ccc(N2CC(N3CCN(c4ccc5c(c4)-c4nc(N6C(=O)OC[C@H]6C(F)F)cn4CCO5)CC3)C2)cc1Cl [Compound 361] | < 50 nM | < 50 nM |
| CC(C)(C=C(C#N)C(=O)Nc1ccc(N2CC(N3CCN(c4ccc5c(c4)-c4nc(N6C(=O)OC[C@H]6C(F)F)cn4CCO5)CC3)C2)cc1Cl)N1CCC1 [Compound 363] | < 50 nM | < 50 nM |
| CC(C)(C)C=C(C#N)C(=O)Nc1ccc(N2CC(N3CCN(c4ccc5c(c4)-c4nc(N6C(=O)OC[C@H]6C(F)F)cn4CCO5)CC3)C2)cc1Cl [Compound 364] | < 50 nM | < 50 nM |
| CN(C)C/C=C/C(=O)Nc1ccc(N2CC(N3CCN(c4ccc5c(c4)-c4nc(N6C(=O)OC[C@H]6C(F)F)cn4CCO5)CC3)C2)cc1Cl [Compound 365] | < 50 nM | < 50 nM |
| CC(=O)NC(C)(C)C=C(C#N)C(=O)Nc1ccc(N2CC(N3CCN(c4ccc5c(c4)-c4nc(N6C(=O)OC[C@H]6C(F)F)cn4CCO5)CC3)C2)cc1Cl [Compound 366] | < 50 nM | < 50 nM |
| Cc1nc(-c2cn3c(n2)-c2cc(N4CCN(C5CN(c6ccc(NC(=O)C(C#N)=CC(C)(C)C)cc6F)C5)CC4)ccc2OCC3)n(C(C)C)n1 [Compound 367] | < 50 nM | < 50 nM |
| Cc1nc(-c2cn3c(n2)-c2cc(N4CCN(C5CN(c6ccc(NC(=O)C(C#N)=CC(C)(C)C)cn6)C5)CC4)ccc2OCC3)n(C(C)C)n1 [Compound 368] | < 50 nM | < 50 nM |
| Cc1nc(-c2cn3c(n2)-c2cc(N4CCN(C5CN(c6ccc(NC(=O)C(C#N)=CC(C)(C)C)c(Cl)c6)C5)CC4)ccc2OCC3)n(C(C)C)n1 [Compound 370] | < 50 nM | < 50 nM |
| CC(C)n1ncnc1-c1cn2c(n1)-c1cc(N3CCN(C4CN(c5ccc(NC(=O)C(C#N)=CC(C)(C)C)cn5)C4)CC3)ccc1OCC2 [Compound 371] | < 50 nM | < 50 nM |
| Cc1nc(-c2cn3c(n2)-c2cc(N4CCN(C5CN(c6ccc(NC(=O)C(C#N)=CC(C)(C)NC(=O)OC(C)(C)C)cn6)C5)CC4)ccc2OCC3)n(C(C)C)n1 [Compound 372] | < 50 nM | < 50 nM |
| Cc1nc(-c2cn3c(n2)-c2cc(N4CCN(C5CN(c6ccc(NC(=O)C(C#N)=CC(C)(C)NC(=O)OC(C)(C)C)cc6Cl)C5)CC4)ccc2OCC3)n(C(C)C)n1 [Compound 373] | < 50 nM | < 50 nM |
| C=CC(=O)Nc1ccc(N2CC(N3CCN(c4ccc5c(c4)-c4nc(-c6nc(C)nn6C(C)C)cn4CCO5)CC3)C2)c(F)c1 [Compound 376] | < 50 nM | < 50 nM |
| CC(C)(C=C(C#N)C(=O)Nc1ccc(N2CC(N3CCN(c4ccc5c(c4)-c4nc(N6C(=O)OC[C@H]6C(F)F)cn4CCO5)CC3)C2)cc1)NCC1CCO1 (stereo partly shown) [Compound 382] | < 50 nM | < 50 nM |
| CC(C)(C=C(C#N)C(=O)Nc1ccc(N2CC(N3CCN(c4ccc5c(c4)-c4nc(N6C(=O)OC[C@H]6C(F)F)cn4CCO5)CC3)C2)cc1)NCCO [Compound 383] | < 50 nM | < 50 nM |
| CC(C)(C=C(C#N)C(=O)Nc1ccc(N2CC(N3CCN(c4ccc5c(c4)-c4nc(N6C(=O)OC[C@H]6C(F)F)cn4CCO5)CC3)C2)c(F)c1)NC1(C)COC1 [Compound 384] | < 50 nM | < 50 nM |
| CC(C)(C=C(C#N)C(=O)Nc1ccc(N2CC(N3CCN(c4ccc5c(c4)-c4nc(N6C(=O)OC[C@H]6C(F)F)cn4CCO5)CC3)C2)c(Cl)c1)NC1(C)COC1 [Compound 385] | < 50 nM | < 50 nM |
| N#CC(=CC1(NC2COC2)CCC1)C(=O)Nc1ccc(N2CC(N3CCN(c4ccc5c(c4)-c4nc(N6C(=O)OC[C@H]6C(F)F)cn4CCO5)CC3)C2)cc1 [Compound 388] | < 50 nM | < 50 nM |
| N#CC(=CC1(N)CCC1)C(=O)Nc1ccc(N2CC(N3CCN(c4ccc5c(c4)-c4nc(N6C(=O)OC[C@H]6C(F)F)cn4CCO5)CC3)C2)cc1 [Compound 391] | < 50 nM | < 50 nM |
| CNC1(C=C(C#N)C(=O)Nc2ccc(N3CC(N4CCN(c5ccc6c(c5)-c5nc(N7C(=O)OC[C@H]7C(F)F)cn5CCO6)CC4)C3)cc2)CCC1 [Compound 392] | < 50 nM | < 50 nM |

From patent US20260193268A1, “TRICYCLIC PI3Ka INHIBITOR, PREPARATION METHOD THEREFOR, AND PHARMACEUTICAL USE THEREOF” (WIGEN BIOMEDICINE TECHNOLOGY (SHANGHAI) CO., LTD., priority 2022, published 2026)
